# Test system: Vaccinia virus
# Assay: Antiviral activity against Vaccinia virus in E6SM cells assessed as reduction of virus-induced cytopathogenicity
# Type: functional, organism-based
# Conditions: Orthopoxvirus vaccinia
row,SMILES,EC50
1,C#Cc1cn([C@H]2C[C@H](O)[C@@H](CO)O2)c(=O)[nH]c1=O,0.1 µg/mL
2,C[Si](C)(C)C#Cc1cn([C@H]2C[C@H](O)[C@@H](CO)O2)c(=O)[nH]c1=O,0.2 µg/mL
3,CC(=O)OC[C@H]1O[C@@H](n2cc(C#CI)c(=O)[nH]c2=O)[C@@H](OC(C)=O)[C@@H]1OC(C)=O,> 10 µg/mL
4,O=c1[nH]c(=O)n([C@H]2C[C@H](O)[C@@H](CO)O2)cc1C#CI,0.2 µg/mL
5,C[Si](C)(C)C#Cc1cn([C@@H]2O[C@H](CO)[C@@H](O)[C@@H]2O)c(=O)[nH]c1=O,7 µg/mL
6,Nc1nc2c(ncn2COCCO)c(=O)[nH]1 [ACYCLOVIR],> 400 µg/mL
7,O=c1[nH]c(=O)n([C@H]2C[C@H](O)[C@@H](CO)O2)cc1/C=C/Br [BRIVUDINE],0.2 µg/mL
8,Nc1nc2c(ncn2COC(CO)CO)c(=O)[nH]1 [GANCICLOVIR],> 100 µg/mL
9,NC(=O)c1ncn([C@@H]2O[C@H](CO)[C@@H](O)[C@H]2O)n1 [RIBAVIRIN],20 µg/mL

# Reference: ChEMBL document CHEMBL1143708, “5-alkynyl analogs of arabinouridine and 2'-deoxyuridine: cytostatic activity against herpes simplex virus and varicella-zoster thymidine kinase gene-transfected cells” (J Med Chem, 2007)
